Publication PMC11802874, “The hypolipidemic effect of MI-883, the combined CAR agonist/ PXR antagonist, in diet-induced hypercholesterolemia model” (Nature Communications, 2025)
Several values for one entry are separate records, joined by “and”; a condition that tells them apart may be missing. Equal values may be shown once. Read-outs that look alike come from different tables or passages of the source.

Assays:
human CAR variant 3 = molecular target: T1, human CAR variant 3 (Homo sapiens, UniProt Q14994, DEL233-236); test: CAR3 luciferase reporter assay (CYP2B6-luc) in HepG2 cells; assay type: cell-based
T1 construct: host or cells: HepG2
T1 sequence (Q14994 with tags, fused parts or gaps isoform Q14994-8 DEL233-236): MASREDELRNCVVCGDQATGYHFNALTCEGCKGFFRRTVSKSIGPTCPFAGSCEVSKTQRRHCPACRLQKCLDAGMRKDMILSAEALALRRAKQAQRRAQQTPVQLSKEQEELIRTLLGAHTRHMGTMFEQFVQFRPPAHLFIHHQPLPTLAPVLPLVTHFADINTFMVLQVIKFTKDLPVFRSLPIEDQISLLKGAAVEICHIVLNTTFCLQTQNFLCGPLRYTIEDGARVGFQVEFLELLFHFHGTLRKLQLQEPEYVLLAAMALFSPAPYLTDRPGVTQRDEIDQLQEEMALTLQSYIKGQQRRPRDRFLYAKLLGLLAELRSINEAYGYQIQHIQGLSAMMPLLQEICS
T1 sequence (P19793 1-462 partner): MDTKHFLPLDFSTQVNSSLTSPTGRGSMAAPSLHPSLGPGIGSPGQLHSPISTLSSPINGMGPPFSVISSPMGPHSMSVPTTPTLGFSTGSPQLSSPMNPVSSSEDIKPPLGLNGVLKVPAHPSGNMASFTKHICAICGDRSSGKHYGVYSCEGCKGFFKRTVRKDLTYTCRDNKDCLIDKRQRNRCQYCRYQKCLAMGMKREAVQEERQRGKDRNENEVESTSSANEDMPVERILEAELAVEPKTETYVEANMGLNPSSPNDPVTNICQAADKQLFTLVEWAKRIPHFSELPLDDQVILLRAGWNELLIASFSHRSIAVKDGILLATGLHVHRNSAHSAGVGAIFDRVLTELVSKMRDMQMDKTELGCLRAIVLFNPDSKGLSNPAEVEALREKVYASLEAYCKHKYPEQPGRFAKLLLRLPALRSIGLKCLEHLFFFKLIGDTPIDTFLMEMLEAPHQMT
Protocol: CAR3 luciferase reporter assay (with CYP2B6-luc) was performed in human hepatocellular carcinoma HepG2 cells as we described[19] For the CAR3 assay (Fig. 1d), a CYP2B6-luc reporter plasmid (originally entitled B-1.6k/PB/XREM) was kindly donated by Dr. Hongbing Wang (University of Maryland School of Pharmacy, Baltimore, MD, USA). All expression vectors are described in Supplementary, Chapter 4).
Cells were treated for 24 h with MI-883 in a range of concentration from 0.1 nM to 30 µM (n = 3). The half maximal effective concentration (EC50) to activate CAR or inhibit PXR (IC50) in the assays was calculated from at least eight points of the dose-response curves using the GraphPad Prism software.

human PXR = molecular target: T2, human PXR (Homo sapiens, UniProt O75469); test: PXR luciferase reporter gene assay (CYP3A4-luc) in HepG2 cells; assay type: cell-based; design: host or cells: HepG2
T2 sequence (O75469 1-434): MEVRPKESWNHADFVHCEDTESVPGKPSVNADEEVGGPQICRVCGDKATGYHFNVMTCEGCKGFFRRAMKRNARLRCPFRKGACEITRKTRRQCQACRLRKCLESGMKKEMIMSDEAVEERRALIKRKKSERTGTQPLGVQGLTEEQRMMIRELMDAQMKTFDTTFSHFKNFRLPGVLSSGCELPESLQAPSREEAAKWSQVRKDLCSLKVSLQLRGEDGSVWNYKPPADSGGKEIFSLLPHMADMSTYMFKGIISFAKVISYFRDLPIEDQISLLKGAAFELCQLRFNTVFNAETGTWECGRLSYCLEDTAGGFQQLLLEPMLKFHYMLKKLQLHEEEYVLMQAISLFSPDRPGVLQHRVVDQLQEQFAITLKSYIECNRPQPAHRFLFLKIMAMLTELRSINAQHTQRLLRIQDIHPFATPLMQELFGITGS
Protocol: The half maximal effective concentration (EC50) to activate CAR or inhibit PXR (IC50) in the assays was calculated from at least eight points of the dose-response curves using the GraphPad Prism software.

LXRβ = LXRβ (Homo sapiens, UniProt P55055); test: Luciferase reporter gene assay LXRβ, HepG2
Excerpt: Gal4-LBD constructs of tested nuclear receptors have been used together with pGL4.31[luc2P/GAL4UAS/Hygro] luciferase reporter construct and pRL-TK Renilla expression vector (both from Promega, Hercules, USA) in HepG2 cells transfected with Lipofectamine 2000 or 3000 reagents. For GRα and FXR receptors, full-length expression vectors have been used with pGRE-luc or pFXRE-luc luciferase constructs. For the aryl hydrocarbon receptor (AhR), p1A1-luc construct was used with only pRL-TK vector for transfection normalization. A dual reporter assay (Promega, Hercules, USA) was used to analyze both firefly and Renilla luciferase activities.
Gal4-LBD constructs of tested nuclear receptors have been used together with pGL5-luc luciferase reporter construct and pRL-TK Renilla expression vector in HepG2 cells transfected with Lipofectamine 2000 or 3000 reagents. For GRα and FXR receptors, full-length expression vectors have been used with pGRE-luc or pFXRE-luc luciferase constructs. For the aryl hydrocarbon receptor (AhR), p1A1-luc construct was used with only pRL-TK vector for transfection normalization. […] Bars represent means±S.D. (n=3).

[1] = test system: FXR, LXRα, LXRβ, THα, GRα, PPARα, PPARδ/β, PPARγ, AhR, VD, ERα, ERβ, mouse Car; test: Nuclear receptor luciferase reporter panel (statements on the whole panel); assay type: cell-based
Excerpt: (see Supplementary Chapter 7).
Thank you for the insightful question and comment. We have corrected the sentence to read:
Thank you for the idea. Yes, we conducted luciferase reporter assays in antagonistic "mode" for several nuclear receptors using their prototype ligands in the revised manuscript (Figure R7).
This information is included in the Supplementary Information.
Treatment with 5 and 10 µM
(1 picture or pasted object on this page, not shown here) […]
nM dexamethasone, 10 µM GW3965 (LXRα agonist), and 10 µM estradiol. Data are presented as a […]

human PXR LBD = molecular target: T3, human PXR LBD (Homo sapiens, UniProt O75469); test: PXR LBD assembly assay in HepG2 cells; assay type: cell-based
T3 construct: helix 1 part of the LBD of PXR (residues 132–188); helices 2-12 of the PXR-LBD (residues 189-434); expressed in transfected cells; host or cells: HepG2
Excerpt: A human PXR LBD assembly assay (Fig. 1k) was done with expression plasmids encoding fusion protein of GAL4-DNA binding domain (DBD) and helix 1 part of the LBD of PXR (residues 132–188) and fusion protein of VP16 activation domain (AD) and helices 2-12 of the PXR-LBD (residues 189-434), respectively, which have all been described previously. Metridia luciferase expression plasmid pMetLuc2control was obtained by Takara-Clontech (Mountain View, CA, USA). Transient batch transfection of HepG2 cells was done in 96-well plates using Jet-PEI transfection reagent (Polyplus, Illkirch, France), as described previously. The following amounts of plasmid DNA per well were used: 0.24 µg pGL4-G5 and 0.03 µg each of expression plasmids encoding GAL4-DBD/PXR(132-188) and VP16-AD/PXR(189-434). All transfections included 0.01 µg pMetLuc2control per well for normalization of firefly luciferase reporter activities. After overnight incubation with the transfection mixtures, cells were treated with chemicals in a volume of 100 µl of cell culture medium. […] Firefly luciferase activity was measured in 10 µl of cell lysates, and Metridia luciferase activity was analyzed in 10 µl of medium supernatant, both as described before. Results were normalized by dividing firefly luciferase activity by Metridia luciferase activity measured from the same well.

Sequence of LXRβ (P55055 222-460 limits assumed): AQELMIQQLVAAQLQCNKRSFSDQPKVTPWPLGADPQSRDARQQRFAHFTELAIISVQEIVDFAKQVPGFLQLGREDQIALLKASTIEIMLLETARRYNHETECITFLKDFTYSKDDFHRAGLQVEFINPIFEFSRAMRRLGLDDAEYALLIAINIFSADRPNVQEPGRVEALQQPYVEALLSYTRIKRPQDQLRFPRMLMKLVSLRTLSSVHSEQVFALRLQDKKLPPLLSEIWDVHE

NC(=O)c1cc(Cn2cc(-c3c(-c4ccc(Cl)cc4)nc4cc(F)ccn34)nn2)ccc1Cl [MI-883, 2-chloro-5-((4-(2-(4-chlorophenyl)-7-fluoroimidazo[1,2-a]pyridin-3-yl)-1H-1,2,3-triazol-1-yl)methyl)benzamide]
CAR3 variant activation (Fig. 1d), replicates (human CAR variant 3; concentration 0.01 (unit not given), HepG2, 24 h): 1
CAR3 variant activation (Fig. 1d), replicates (human CAR variant 3; concentration 0.1 (unit not given)): 1.35 and 1.4 and 2.3
CAR3 variant activation (Fig. 1d), replicates (human CAR variant 3; concentration 1 (unit not given)): 4.55 and 1.6 and 1.1
CAR3 variant activation (Fig. 1d), replicates (human CAR variant 3; concentration 10 (unit not given)): 4.3 and 13.5 and 6.2
CAR3 variant activation (Fig. 1d), replicates (human CAR variant 3; concentration 30 (unit not given)): 10.05 and 10.1 and 9.78
IC50 (human PXR; HepG2 cells, read-out: IC50, basal PXR activation): 2030 ± 300 nM
IC50 (human PXR; HepG2 cells, read-out: IC50, rifampicin-induced PXR activation): 3600 ± 400 nM
IC50 (human PXR; reply to reviewers, read-out: IC50 for PXR antagonistic activity): 2000 nM
NRs assays: LXRbeta (relative to ctrl, replicates) (LXRβ): 0.51 and 0.81 and 0.55
interactions with other tested nuclear receptors (agonist mode) ([1]; 10 µM, 24 h, HepG2): no other interactions
inhibition of other nuclear receptors, antagonistic mode (FXR, THα, AhR, PPARα, PPARγ, GR, LXRα) ([1]; 5 and 10 μM with prototype ligands): not inhibit the other nuclear receptors
PXR LBD assembly (human PXR LBD): stimulates
